{"source": "patent US20220204563A1", "about": "“DELIVERY PEPTIDES AND METHODS OF USING THE SAME” (NATIONAL INSTITUTE FOR BIOTECHNOLOGY IN THE NEGEV LTD., priority 2019, published 2022)", "key": {"[1]": {"experiment": "Dynamic light scattering (DLS) of dsRNA-peptide conjugates", "format": "physicochemical", "details": "700 bp dsRNA, dsRNA:peptide ratio 1:30 (FIG. 6B dots)", "protocol": "Constant amount of dsRNA (25 pmole) solution was mixed with an increasing amount of peptide solution in an Eppendorf vial (˜1.5 mL). The total conjugation reaction volume was completed to 15 μl with DEPC treated DDW. The solutions were incubated at room temperature for 20 minutes. To evaluate peptide-dsRNA conjugation, a 1.3% agarose gel was prepared in TAE buffer. Conjugates were mixed with equal volume of loading buffer (50% glycerol and 0.5 M EDTA). Peptide-dsRNA conjugates were separated for 30 minutes at 120 V. Fluorescent emission of conjugates in gels were scanned by using a Typhoon FLA 9500 gel system (GE Healthcare®).\nIn order to verify whether the Vg-derived peptide was capable to piggyback and internalize a large molecule such as a dsRNA into the oocytes, a conjugation approach between the peptide and dsRNA was developed. The Vg-TAMRA and the control-FITC peptides were synthesized with a cationic poly lysine-histidine tail (KH) to allow electrostatic interactions between the peptides and the negatively charged dsRNA. The dsRNA-peptide complexes prepared at different molar ratios (peptide/dsRNA ratio: 1, 5, 10, 20 and 30) were characterized with two different assays: dynamic light scattering (DLS) and separation on agarose gel.\ndsRNA of 700 bp (dsEGFR) and another one a mix of 200 and 230 bp dsRNA (dsPAX6) were prepared (FIG. 3A). […]"}, "[2]": {"tested_on": "M. rosenbergii early vitellogenic oocytes", "experiment": "In vitro incubation of ovary pieces with fluorophore-labelled peptides, confocal imaging of oocytes", "format": "cell-based, Macrobrachium rosenbergii", "details": "for Fluorescent intensity in oocytes compared to Vg246-253-TAMRA: ovary slices in vitro, TAMRA emission; for Distribution of TAMRA-labelled peptide in the oocyte: ovary pieces incubated with Vg-TAMRA or scVg-TAMRA separately, 6 μM, confocal; for Endocytosis into oocytes, distribution of the two fluorescent-labelled peptides: simultaneous incubation with Vg-TAMRA and control-FITC, 6 μM each", "protocol": "(§1) Ovary pieces from in-vitro or in-vivo experiments were washed with Schneider's drosophila medium without the peptides for 5 min. Then, the pieces were torn apart on a slide in one drop of the medium to better view the individual oocytes. The slides were inspected, and images were taken by a confocal microscope FV1000 (Olympus) at ×60 magnification. The excitation laser wavelength was 561 nm for the TAMRA labelled peptides and 488 nm for FITC labelled control peptides, and the emission was obtained at […], respectively.\nM. rosenbergii ovary pieces of 1-3 mm with oocytes diameter of ˜150 μm (early vitellogenic ovaries) were incubated in a sterile 24-wells plate, 2 cm^2 growth area each well (Biofil®) in a biological hood. Each piece was incubated with 250 μl Schneider's drosophila culture medium with osmolality fixed to 420 mOsm/L and supplemented with FBS (10%), PSA (final concentration: Penicillin—100 units/mL, streptomycin—0.1 mg/mL, Amphotericin B—0.25 μg/mL and insulin 10 mg/ml insulin in 25 mM HEPES). The ovary pieces were incubated either with Vg-TAMRA or scVg-TAMRA or with both Vg-TAMRA and scVg-FITC simultaneously (6 μM each). The plate was incubated at room temperature for 24 and 48 hours. To test dsRNA piggybacking, 55 pmole dsRNA was conjugated to 275 pmole either Vg-TAMRA or scVg-FITC peptides. Ovary pieces were incubated with the dsGFP-Vg-TAMRA or dsGFP-scVg-FITC conjugates and cultured as stated above.\nTo evaluate the endocytosis capability of oocytes with respect to the newly designed Vg-derived peptides, an in vitro experiment was performed. Vg-derived and control peptides, labeled with TAMRA fluorophore, were detected by confocal microscopy. Both peptides were detected in the vicinity of the oocyte membrane (FIG. 4). […] In order to get the highest certainty regarding the internalization specificity of the Vg-derived peptides, the Vg and control peptides were labelled with an additional fluorophore (FIGS. 4E-4H), Vg peptide was labelled with TAMRA (FIGS. 4E and 4H), while the control peptide has been labelled with FITC molecule (FIG. 4F). A similar result was obtained in this experiment showing distinct distribution of the two fluorescent-labelled peptides.\nFurther, a dose dependent test with respect to Vg-derived peptides penetration into oocytes using Vg descending concentrations was performed (FIG. 5). Unlike the control scrambled peptide (scVg), the Vg peptide maintained similar pattern of distribution in the oocyte throughout the descending concentrations (FIG. 5, upper row).\nThe inventors further examined the capability and efficacy of shorter/partial sequences derived from the peptide of the invention to being internalized into M. rosenbergii oocytes. Further, the inventors examined whether homologous peptides derived from a different decapod crustacean, e.g., Litopenaeus vannamei, would also be internalized into M. rosenbergii oocytes.\nThe mentioned peptides were incubated in vitro with ovary slices to evaluate their internalization. […] In contrast to that, the Vg-derived peptides were capable to enter the oocyte as they were observed beyond the follicular cells inside the oocytes (red dots, FIGS. 11B-11G). […] Moreover, both L. vannamei Vg derived peptides were capable to endocytose into M. rosenbergii oocytes (FIGS. 11F-11G)."}, "[3]": {"tested_on": "oocytes", "experiment": "In vivo assay: peptide injection into the hemolymph of reproductive females, confocal imaging of oocytes and gills", "design": "species or system Macrobrachium rosenbergii", "details": "for Fluorescent emission in oocytes after injection: mixture of both peptides injected, 5 μg/gr body weight, oocytes dissected 24 h after injection", "protocol": "as §1\nSolution containing the culture medium, Vg-TAMRA and scVg-FITC peptides were injected (5 μg/gr body weight) into the hemolymph sinus at the base of the fifth walking leg of a M. rosenbergii reproductive females (14.3±0.4 gr, with opaque white to yellowish ovary, FIG. 2, left). For the injection, a manual micro dispenser syringe was used (Drummond®). After injection, the animals were kept at 28° C. for 24 hours in the culture facility for freshwater prawn M. rosenbergii, at Ben-Gurion University. Vg-dsEGFR or Vg-dsPAX6 conjugates (5:1 molar ratio for conjugation, 5 μg dsRNA/g body weight) were injected twice a week at the first two weeks. From the third week, the injections were performed once a week. The females were monitored daily and upon appearance of the reproductive molt, the females were released to a tank with a male for fertilization. The embryos' development on the pleopods of their mother (FIG. 2, middle) were monitored under stereoscope, and a fraction was collected for RNA extraction and subsequent quantitative PCR analysis.\nTo determine whether the Vg-TAMRA peptide has the capability to specifically in vivo internalize into oocytes, a mixture of the Vg-TAMRA and the control-FITC peptides were injected into the prawn circulatory system. […] To verify that the two peptides did circulate through the prawn female body, the prawn gills were dissected and examined under the confocal microscope."}}, "note": "Primed or numbered codes have the meaning given here. No end group written: not given here. TAMRA = tetramethylrhodamine fluorescent label; FITC′ = not defined here", "data": [{"substance": "KHKHKHKHKHKHKHKHKHCDKNIIKPAYGSYKYVEAHQESVLRK-TAMRA (KHKHKHKHKHKHKHKHKHCDKNIIKPAYGSYKYVEAHQESVLRK-{TAMRA}) [KH9-Vg]", "values": [{"measurement": "Particle radius (DLS)", "setting": "[1]", "result": "~100", "unit": "nm"}]}, {"substance": "DKNIIKPK-TAMRA (DKNIIKPK-{TAMRA}) [Vg237-244-TAMRA]", "values": [{"measurement": "Fluorescent intensity in oocytes compared to Vg246-253-TAMRA", "setting": "[2]", "result": "Weaker florescent intensity"}]}, {"substance": "CDKNIIKPAYGSYKYVEAHQESVLRK-TAMRA (CDKNIIKPAYGSYKYVEAHQESVLRK-{TAMRA}) [Vg-TAMRA]", "values": [{"measurement": "Fluorescence intensity in comparison to the control peptide", "setting": "[2]; descending concentrations 12-0.75 μM, fluorescence and overlay images", "result": "higher intensity of the red TAMRA emission"}, {"measurement": "Distribution of TAMRA-labelled peptide in the oocyte", "setting": "[2]", "result": "distributed mainly at the cytosolic side of the oocyte membrane"}, {"measurement": "Fluorescent signal in oocytes", "setting": "[2]; peptide concentration 0.75 μM", "result": "No signal was detected"}, {"measurement": "Fluorescent signal in oocytes", "setting": "[2]; peptide concentration 1.5 μM", "result": "clear fluorescent signal"}, {"measurement": "Fluorescent signal in oocytes", "setting": "[2]; peptide concentration 6 μM", "result": "clear fluorescent signal"}, {"measurement": "Fluorescent signal in oocytes", "setting": "[2]; peptide concentration 12 μM", "result": "clear fluorescent signal"}, {"measurement": "Endocytosis into oocytes, distribution of the two fluorescent-labelled peptides", "setting": "[2]", "result": "clearly observed"}, {"measurement": "Detection of peptide in gills after injection", "setting": "[3]; early vitellogenic female injected simultaneously with both peptides", "result": "can be detected in the gills"}, {"measurement": "Fluorescent emission in oocytes after injection", "setting": "[3]", "result": "a clear 564 nm emission was seen inside the oocytes"}]}, {"substance": "CQAPVKLIAYDKNKYEHEYRISVSGK-FITC (CQAPVKLIAYDKNKYEHEYRISVSGK-{FITC′}) [scVg-FITC, reference compound]", "values": [{"measurement": "Internalization into M. rosenbergii oocytes", "setting": "[2]; ovary slices incubated with Vg-derived peptide TAMRA and scVg-FITC simultaneously", "result": "observed only on the outer area of the oocyte"}, {"measurement": "Endocytosis into oocytes, distribution of the two fluorescent-labelled peptides", "setting": "[2]", "result": "only on the outer surface of the membrane"}, {"measurement": "Detection of peptide in gills after injection", "setting": "[3]; in vivo", "result": "can be detected in the gills"}, {"measurement": "Fluorescent emission in oocytes after injection", "setting": "[3]", "result": "absent from oocytes"}]}, {"substance": "CQAPVKLIAYDKNKYEHEYRISVSGK-TAMRA (CQAPVKLIAYDKNKYEHEYRISVSGK-{TAMRA}) [scVg-TAMRA, reference compound]", "values": [{"measurement": "Distribution of TAMRA-labelled peptide in the oocyte", "setting": "[2]", "result": "mainly dispersed on the outer surface of the oocyte"}, {"measurement": "Fluorescent signal in oocytes", "setting": "[2]; peptide concentration 0.75 μM", "result": "No signal was detected"}, {"measurement": "Fluorescent signal in oocytes", "setting": "[2]; peptide concentration 1.5 μM", "result": "no apparent signal"}, {"measurement": "Fluorescent signal in oocytes", "setting": "[2]; peptide concentration 6 μM", "result": "weak fluorescent signal"}, {"measurement": "Fluorescent signal in oocytes", "setting": "[2]; peptide concentration 12 μM", "result": "weak fluorescent signal"}]}, {"substance": "Vg235-260-TAMRA: 26 amino acid VgR interacting region peptide; probably the Vg-TAMRA peptide of SEQ ID NO: 22 (CDKNIIKPAYGSYKYVEAHQESVLRK; not fully specified (C-terminus); also: TAMRA label)", "values": [{"measurement": "Fluorescent intensity in oocytes compared to Vg246-253-TAMRA", "setting": "[2]", "result": "Weaker florescent intensity"}]}, {"substance": "DKNIIKPAYGSYKYVEAK-TAMRA (DKNIIKPAYGSYKYVEAK-{TAMRA}) [Vg237-253-TAMRA]", "values": [{"measurement": "Fluorescent intensity in oocytes compared to Vg246-253-TAMRA", "setting": "[2]", "result": "Weaker florescent intensity"}]}]}
